These results are taken from patent publication US8003630B2, “Combinatorial therapies for the treatment of neoplasias using the opioid growth factor receptor” (The Penn State Research Foundation, priority 2004, dated 2011).

For orientation: inhibition means the change of the read-out against control, counted positive when it falls.

Data set [1] deals with MiaPaCa-2 cells. Nature of the data set: Growth curves of MiaPaCa-2 cells, cell proliferation (MTT) assay, absorbency. The following applies: for Significance from 5-FU 10^−6 M Values: 5-FU 10^−5 M alone or with OGF; for Significance from 5-FU 10^−5 M Values: 5-FU 10^−6 M alone or with OGF (b: 5-FU 10^−5 M more inhibitory); for decrease in cell number from controls: MiaPaCa-2.
Description: Cells were counted using a standard MTT assay. In general, each data point represents the average absorbency taken from 10 wells/treatment; error bars represent the S.E.M.

The test system of data set [2] is carcinomas of the colon and rectum. The conditions noted are these: single agent; cited from earlier work.
The conditions of data set [3]: metabolized primarily in the liver; cited from earlier work.
Data set [4] concerns MIA PaCa-2 cells. Nature of the data set: Growth assays of MIA PaCa-2 cells (MTS assay or cell counting), Example 7. Type of data set: cell-based, human. The following applies: for decrease in cell number relative to controls: OGF 10^−6 M and/or gemcitabine 10^−8 M. As for the experimental part: (§1) MIA PaCa-2 and PANC-1 human pancreatic adenocarcinoma cell lines were purchased from the American Type Culture Collection (Manasass, Va.). MIA PaCa-2 cells were derived from an undifferentiated epithelial carcinoma occurring in the body and tail of the pancreas in a person. The PANC-1 cells were derived from an undifferentiated carcinoma from the head of the pancreas in a person. MIA PaCa-2 and PANC-1 cells were grown in Dulbecco's MEM (modified) media; media was supplemented with 10% fetal calf serum, 1.2% sodium bicarbonate, and antibiotics (5,000 Units/ml penicillin, 5 mg/ml streptomycin, 10 mg/ml neomycin), and the cells were maintained in a humidified atmosphere of 7% CO2/93% air at 37° C.
MIA PaCa-2 cells were seeded at equivalent amounts into either 75 cm^2 flasks, 6-well plates, or 96-well plates (Falcon) and counted 24 hr later to determine plating efficiency. Growth assays for PANC-1 cells were conducted in 6-well plates (Falcon). Compounds or sterile water were added beginning 24 hr after seeding (=0 hr), and both media and compounds were replaced daily. All drugs were prepared in sterile water and dilutions represent final concentrations of the compounds.
(§2) Cell number was recorded either by using a mitogenic bioassay, the MTS assay (Cell Titer 96 One Solution, Promega, Madison, Wis.), and measuring absorbency after 4 hr on a Biorad (Model 3550) plate reader at 490 nm, or by counting cells. For manual counts, cells were harvested with a solution of 0.25% trypsin/0.53 mM EDTA, centrif uiged, and counted with a hemacytometer. Cell viability was determined by trypan blue staining. At least two aliquots per flask or 4-10 wells/treatment were counted at each time.
In general terms: Formazan colour is commonly taken as a measure of viable cells.

Data set [5] relates to MiaPaCa-2 cells. Nature of the data set: Gemcitabine and OGF cell cycle phase analysis by flow cytometry. Type of data set: cell-based, human. A general note: Flow cytometry measures light scatter and fluorescence of single cells or particles in a stream.
Protocol: To investigate the exact cell cycle phase where gemcitabine and/or OGF exerted their effects, flow cytometry was performed.
In another data set the test system is PANC-1 cells. In words: Growth assay of PANC-1 cells in 6-well plates. Type of data set: cell-based, human. The conditions noted are these: 72 hr, OGF 10^−6 M and/or gemcitabine 10^−8 M. As for the experimental part:
as §1
MIA PaCa-2 cells were seeded at equivalent amounts into either 75 cm^2 flasks, 6-well plates, or 96-well plates (Falcon) and counted 24 hr later to determine plating efficiency. […]
as §2

In data set [6] the test system is MIA PaCa-2 cells. Nature of the data set: MIA PaCa-2 xenograft in nude mice, tumor appearance, growth and termination day measurements (Example 7). Type of data set: in vivo, BALB/c-nu/nu nude mice. An excerpt:
Male 4 week old BALB/c-nu/nu nude mice purchased from Harlan Laboratories (Indianapolis, Ind.) were housed in pathogen-free isolators in the Department of Comparative Medicine at the Penn State University College of Medicine. All procedures were approved by the IACUC committee of the Penn State University College of Medicine and conformed to the guidelines established by NIH. Mice were allowed 48 hr to acclimate prior to beginning experimentation.
MIA PaCa-2 cells (10^6 cells/mouse) were inoculated into nude mice by subcutaneous injection into the right scapular region; mice were not anesthetized for this procedure.
All drugs were dissolved in saline and prepared weekly. Injections were given within 1 hr of tumor cell inoculation.
Mice were weighed weekly throughout the experiment, and observed daily for the presence of tumors. The latency for a visible tumor to appear, and the time until tumors were measurable (i.e., 62.5 mm^3) were recorded. Tumors were measured using calipers every day after tumor appearance. Tumor volume was calculated using the formula w^2×1×π/6, where the length is the longest dimension, and width is the dimension perpendicular to length.
According to IACUC guidelines, mice were terminated when tumors became ulcerated, or tumors grew to 2 cm in diameter. Forty-five days following tumor cell inoculation, all mice were euthanized by an overdose of sodium pentobarbital (100 mg/kg) and killed by cervical dislocation; mice (with tumors) were weighed. Tumors and spleens were removed and weighed, and the lymph nodes, liver, and spleen examined for metastases.

Data set [7] has as its system MiaPaCa-2 cells. Nature of the data set: OGF/gemcitabine treatment in athymic nude mouse model (Example 5). Type of data set: in vivo, athymic nude mice. The conditions noted are these: day 16 after tumor cell inoculation.
Description: To examine the effectiveness of the combined OGF/gemcitabine treatments in vivo, an athymic nude mouse model was used.
Data set [8] relates to MiaPaCa-2 cells. Nature of the data set: Gemcitabine growth curve, actual cell counts. Type of data set: cell-based, human. The conditions noted are these: MiaPaCa-2 cell counts.

Marks after values point to notes of the source that are not given here.

On to `O=c1[nH]cc(F)c(=O)[nH]1` [5-FU, 5-fluorouracil], for which the “Significance from 5-FU 10^−6 M Values” with MiaPaCa-2 cells [1] (48 h), with MiaPaCa-2 cells [1] (72 h) and in the data set on MiaPaCa-2 cells [1] (96 h) was “###^b (Significantly different from 5-FU 10^−6 M at p < 0.001 (###))” throughout. Also, the “Significance from 5-FU 10^−5 M Values” with MiaPaCa-2 cells [1] (48 h), in the data set on MiaPaCa-2 cells [1] (72 h) and in the data set with MiaPaCa-2 cells [1] (96 h) was “^^^^b (Significantly different from 5-FU 10^−5 M at p < 0.001)” each time. The “decrease in cell number from controls” value in the data set on MiaPaCa-2 cells [1] (48 h, 5-FU 10^-5 M and/or OGF 10^−6 M) was found to be 26.0%; with MiaPaCa-2 cells [1] (48 h, 5-FU 10^-6 M alone or with OGF 10^−6 M), 12.7%; in the data set with MiaPaCa-2 cells [1] (72 h, 5-FU 10^-5 M and/or OGF 10^−6 M), 30.1%; with MiaPaCa-2 cells [1] (72 h, 5-FU 10^-6 M alone or with OGF 10^−6 M) it was 10.8%; with MiaPaCa-2 cells [1] (96 h, 5-FU 10^-5 M and/or OGF 10^−6 M) it was 36.4%; in the data set with MiaPaCa-2 cells [1] (96 h, 5-FU 10^-6 M alone or with OGF 10^−6 M), 15.2%. The mean response rate entry in [2] is given as “less than 20%”. Also, the “drug appearing unchanged in urine” value in data set [3] is reported as 10%.
With `Nc1ccn([C@@H]2O[C@H](CO)[C@@H](O)C2(F)F)c(=O)n1` [gemcitabine], in the data set with MIA PaCa-2 cells [4] (Homo sapiens, MIA PaCa-2, 96 h, read-out: inhibition of cell growth relative to control levels), the inhibition at 0.01 µM lay in the range of 13 to 36%. Also, the “decrease in cell number relative to controls” value in the data set on MIA PaCa-2 cells [4] (MIA PaCa-2, 48 hr) stood at 22%; with MIA PaCa-2 cells [4] (MIA PaCa-2, 72 hr), 21%; in the data set with MIA PaCa-2 cells [4] (MIA PaCa-2, 96 hr), 32%; in the data set with MiaPaCa-2 cells [8] (24 h, gemcitabine 10^−7 M or OGF 10^−6 M alone), 30.1%; in the data set with MiaPaCa-2 cells [8] (48 h, gemcitabine 10^−7 M or OGF 10^−6 M alone), 46.4%; in the data set on MiaPaCa-2 cells [8] (48 h, gemcitabine 10^−8 M alone or with OGF 10^−6 M) it was 21.7%. For the same molecule, the “decrease in cell number relative to controls” value in the data set on MiaPaCa-2 cells [8] (72 h, gemcitabine 10^−7 M or OGF 10^−6 M alone) amounted to 47.7%; with MiaPaCa-2 cells [8] (72 h, gemcitabine 10^−8 M alone or with OGF 10^−6 M) it was 21.2%; with MiaPaCa-2 cells [8] (96 h, gemcitabine 10^−7 M or OGF 10^−6 M alone), 64.2%; in the data set with MiaPaCa-2 cells [8] (96 h, gemcitabine 10^−8 M alone or with OGF 10^−6 M) it was 32.4%. The “difference in cell number between reversal group and group continuing drug exposure” value with MIA PaCa-2 cells [4] (MIA PaCa-2, 96 hr (48 hr after reversal)) is given as “did not differ”. Moreover, the results for the “cells in the G1 phase of the cell cycle” value with MiaPaCa-2 cells [5] (48 hours of treatment) and in the data set on MiaPaCa-2 cells [5] (120 hours of treatment) were 73.50% and 60.75%, respectively. Further, the “fewer cells than in control cultures” value with PANC-1 cells is reported as 31%. Besides, the “day from which tumor volume differed from controls” value in the data set on MIA PaCa-2 cells [6] (at least p<0.05) is 14 days. Besides, the “mice with measurable tumors” value with MIA PaCa-2 cells [6] (day 10) turned out to be 75%. For the same molecule, in the data set on MIA PaCa-2 cells [6] (day 45), the “tumor volumes decreased from control values” is 56%. Also, in the data set with MIA PaCa-2 cells [6] (day 45), the “weight of the spleen decreased from control values” is “approximately 40%”. Also, the “Body Weight” value in the data set on MIA PaCa-2 cells [6] (day 45, means ± SEM) was found to be 27.4 ± 0.55 g. Moreover, the “Spleen Weight” value in the data set with MIA PaCa-2 cells [6] (day 45, means ± SEM) was 454 ± 49 mg. The “Tumor Volume, mm^3” value in the data set with MIA PaCa-2 cells [6] (day 45, means ± SEM) is reported as 3963 ± 123*** mm^3. In the data set with MIA PaCa-2 cells [6] (day 45, means ± SEM), the “Tumor Weight” value was determined as 2.4 ± 0.1 g. The “Latency to measurable tumor” value in the data set with MIA PaCa-2 cells [6] (means ± SEM) turned out to be 13.1 ± 1.0 days. In the data set with MIA PaCa-2 cells [6] (means ± SEM), the “Latency to visible tumor” value turned out to be 11.1 ± 1.1 days. Further, the “Tumor Incidence, day 16” value in the data set with MIA PaCa-2 cells [6] (mice with tumor/N) is 11/12. Also, the “Tumor Incidence, day 10” value in the data set on MIA PaCa-2 cells [6] (mice with tumor/N, OGF 10 mg/kg daily and/or gemcitabine 120 mg/kg every 3 days i.p.) is 9/12. Also, the “weights of tumors decreased from control levels” value in the data set with MIA PaCa-2 cells [6] (termination day (day 45)) worked out at 56%. The mice with tumors in the data set with MiaPaCa-2 cells [7] was 75%.
